Assay results as given in PubChem BioAssay AID179 (DTP/NCI, 2004).
“And” between values parts separate entries of the source, which are not always exact repeats. Equal entries are not always repeated. The source made the active and inactive calls.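 How the source made its calls: active means compounds giving half or more protection of infected cells from virus-caused growth loss, again on retest; inactive means the rest.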

System: CEM cells HIV-1 protection, formazan growth assay
Test: NCI AIDS Antiviral Assay
Settings: for IC50: measured here: growth of uninfected CEM cells
Outline: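 Human CEM cells, uninfected and HIV-1-infected, received five drug concentrations, and growth was read by soluble formazan assay. Compounds giving at least 50% protection were retested; reproducible 100% protection defined confirmed active.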

Structure (SMILES) | EC50 [µM] | IC50 | outcome
CC1(C)Cc2ccccc2C(C)(Cl)C(=O)N1 (stereo unspecified) | 191 | > 200 µM | –
O=C(O)c1ccccc1-c1c2ccc(=O)c(O)c-2oc2c(O)c(O)ccc12 | > 25.1 | 8.71 µM | –
c1ccc(N2N=NC3C4CC(C32)C2C4N=NN2c2ccccc2)cc1 (stereo unspecified) | > 200 | > 200 µM | –
Cc1ccc(S(=O)(=O)OCCn2cnc3nc(NC(=O)c4ccccc4)[nH]c(=O)c32)cc1 | > 57.5 | > 57.5 µM | –
NS(=O)(=O)c1ccc(SSc2ccc(S(N)(=O)=O)cc2[N+](=O)[O-])c([N+](=O)[O-])c1 | 30.9 | 195 µM | –
C=CC(C)(C)c1cccc2[nH]c3c(c12)CC1CCC2(O)C4=CC(=O)C5OC4(CCC2(C)[C@@]31C)OC5(C)C (stereo partly specified) | – | – | inactive
COc1cc(N)c2c(c1)SC(C)C(=O)N2 (stereo unspecified) | > 200 | 186 µM | –
Cc1[nH]c(-c2ccccc2)c2nc(N(C)C)oc(=O)c12 | > 200 | > 200 µM | –
CCCNC1=C(C(=O)OCC)C(=O)CO1 | > 33.9 | > 33.9 µM | –
O=C(O)CCc1nc(-c2ccccc2)c(-c2ccccc2)o1 | > 200 | > 200 µM | –
CC(C)CCS(=O)(=O)O | > 200 | > 200 µM | –
Cc1ccc(C)c(NC(=O)CC/C(=N\NC(=O)c2c(O)ccc3ccccc23)C(C)C(=O)c2ccc(O)cc2)c1 (stereo unspecified) | > 27.5 | 14.5 µM | –
CC(=O)OCC1OC(Nc2[nH]c(=O)n(C)c(=O)c2N=O)C(OC(C)=O)C(OC(C)=O)C1OC(C)=O (stereo unspecified) | > 200 | > 200 µM | –
N=c1ccn2c(n1)OC1C(OC(=O)C34CC5CC(CC(C5)C3)C4)C(COC(=O)C34CC5CC(CC(C5)C3)C4)OC12 (stereo unspecified) | – | – | inactive
NC(=O)NC(=O)C1CCC(=O)N1S(=O)(=O)c1ccc(Cl)cc1 (stereo unspecified) | > 724 | 141 µM | –
NCCSSc1ccccc1[N+](=O)[O-] | > 200 | 11.2 µM | –
CC1(CCc2ccccc2)CC1(Br)Br (stereo unspecified) | > 200 | 95.5 µM | –
c1ccc(SC2(Sc3ccccc3)CCCC2)cc1 | – | – | inactive
Cn1cc(C2NC(=O)c3ccccc3N2)c2ccccc21 (stereo unspecified) | > 200 | 0.117 µM | –
CN(C)C1C(=O)C(C(N)=O)=C(O)C2(O)C(=O)C3=C(O)c4c(O)cccc4C(C)(O)C3CC12 (stereo unspecified) | > 562 | 40.7 µM and 10.7 µM | –
COc1cc([C@@H]2CC3(C)OC(=O)C2CC3C)cc(OC)c1OC (stereo partly specified) | > 562 | > 562 µM | –

Structure (SMILES) | EC50 [µM] | IC50 | outcome
COc1ccc(/C(C)=N/Nc2ccc([N+](=O)[O-])cc2[N+](=O)[O-])cc1 | – | – | inactive
Cc1cc2c(c3ncccc13)OCN(Cc1ccc(Cl)c(Cl)c1)C2 | > 100 | 1.05 µM | –
CO/N=C(\C([O-])=N\[n+]1cnn(CC(=O)OC(C)(C)C)c1)c1csc(NC(c2ccccc2)(c2ccccc2)c2ccccc2)n1 | > 200 | 37.2 µM | –
CCCc1cc(=O)oc2c3c(c4c(c12)OC(C)(C)[C@@H](O)[C@@H]4O)O[C@@H](C)[C@H](C)[C@@H]3O | > 200 | 89.1 µM | –
Cc1c(C)c(C)c2c(c1C)C/C2=N/O | > 100 | > 100 µM | –
N/N=c1/nc2n(c3ncccc13)C=CNN2 | > 24.5 | > 24.5 µM | –
CCOC(=O)c1c(C(F)(F)F)oc2c1ccc1nc3nonc3nc12 | > 53.7 | 11 µM | –
CCCN(CCCCC(NC(C)=O)C(=O)NCc1ccccc1)C(=O)NC (stereo unspecified) | > 661 | > 661 µM | –
CSc1nnnc2ccccc12 | > 200 | 145 µM | –
CCOc1ccccc1N=NC1C(=O)N(C(=O)CC(=O)Nc2ccccc2OC)N=C1C (stereo unspecified) | > 200 | > 200 µM | –
COc1cccc(/C=C2/Sc3sc(C(C)=O)c(C)[n+]3C2=O)c1O | > 89.1 | 34.7 µM | –
CCOC(=O)C1SC(=Nc2ccc(Cl)cc2)N=C1C (stereo unspecified) | > 87.1 | > 87.1 µM | –
C#CC(O)/C=C/C(O)CCCC(O)CC#CC(O)C#CCCCCC(O)/C=C/CCCC(=O)CCCCCCCCCCCCCCCC(O)C(O)C#CC(=O)O (stereo unspecified) | > 50.1 | 28.2 µM | –
CCCCCCCCCCCc1c(O)c(O)cc2nc3ccc(SCCC)cc3nc12 | > 16.2 | 9.33 µM | –
CC(C)(C)C1=C(Br)C(F)(C(C)(C)C)OP1(=O)c1ccccc1 (stereo unspecified) | > 200 | 25.7 µM | –
CCOc1cc2c(cc1O)C(O)C[C@@H]1[C@@H]2CC[C@]2(C)[C@@H](O)CC[C@@H]12 (stereo partly specified) | > 200 | 0.0776 µM | –
O=C(C(=O)N1CCc2ccccc21)c1c[nH]c2ccccc12 | > 200 | > 200 µM | –
Nc1ncc(Br)c(NCC2(CO)CCC2)n1 | > 200 | 15.8 µM | –
COC(=O)c1cc(C(=CCN[C@H]2CC[C@@]3(C)[C@@H](CC[C@@H]4[C@@H]3CC[C@]3(C)[C@@H]([C@H](C)CCCC(C)C)CC[C@@H]43)C2)c2cc(Cl)c(OC)c(C(=O)OC)c2)cc(Cl)c1OC | > 100 | > 100 µM | –
CCCCCCCC(=O)c1ccc(O)c(C(=O)Nc2cccc(C(F)(F)F)c2)c1 | > 12.9 | 0.145 µM | –
CC(C)(C)[Si](C)(C)OCC1OC(n2ccc(=O)[nH]c2=O)C/C1=N/O (stereo unspecified) | > 200 | 74.1 µM | –

Structure (SMILES) | EC50 [µM] | IC50 | outcome
Cc1cccc(NC(=O)/C(=N\NC(C)(C)C)C2NC(=S)NC2=O)c1C (stereo unspecified) | > 72.4 | > 72.4 µM | –
CC(C(=O)N1C(=O)N(C(=O)[C@H](C)C(O)c2ccccc2)[C@H](c2ccccc2)[C@H]1c1ccccc1)[C@@H](O)c1ccccc1 (stereo partly specified) | > 200 | 28.2 µM | –
Cc1sc2nc3n(c(=O)c2c1C)N=CN(c1ccc(F)cc1)C3 | 30.9 | > 100 µM | –
NCCCNOCCCN | > 200 | > 200 µM | –
Cc1csc(CCC(N)C(=O)O)n1 (stereo unspecified) | – | – | inactive
ON=C1CCC(c2ccccc2)CC1 (stereo unspecified) | – | – | inactive
O=S(=O)([O-])c1ccc2c(c1)-c1nc-2nc2[n-]c(nc3nc(nc4[n-]c(n1)c1ccc(S(=O)(=O)[O-])cc41)-c1cc(S(=O)(=O)[O-])ccc1-3)c1ccc(S(=O)(=O)[O-])cc21.[Cu+2].[Na+] | > 251 | 0.603 µM | –
Cc1cc2c(C(C)C)c(O)c(O)c(C=Nc3ccc4ccccc4c3)c2c(O)c1-c1c(C)cc2c(C(C)C)c(O)c(O)c(C=Nc3ccc4ccccc4c3)c2c1O | 10.7 | 22.9 µM | –
CCC1Sc2cc(OC)cc3[nH]c(=S)n(c23)C1=O (stereo unspecified) | 126 | 148 µM | –
CN(C)P(=O)(OP(=O)(N(C)C)N(C)C)N(C)C | > 200 | > 200 µM | –
COc1cccc(N2N=C3c4ccccc4-n4c(nc5ccccc54)C3C2N)c1 (stereo unspecified) | > 200 | > 200 µM | –
COc1cccc(-c2[nH]c3cc4c(cc3c(=O)c2C(=O)O)OCO4)c1 | > 200 | 13.8 µM | –
CC(C)(C)[Si](C)(C)OCC1OC(n2ccc(N)nc2=O)C(O[Si](C)(C)C(C)(C)C)C1O[Si](C)(C)C(C)(C)C (stereo unspecified) | > 200 | 10.2 µM | –
CCOC(=O)C(c1ccsc1)C(C(=O)OCC)c1cccs1 (stereo unspecified) | > 200 | > 200 µM | –
CCOC(=O)CSc1ccnc(=O)[nH]1 | > 851 | > 851 µM | –
OCCN1OCCCC1c1ccccc1 (stereo unspecified) | > 1200 | > 1200 µM | –
CCOC(=O)c1nc2ccc(C(F)(F)F)cc2nc1Oc1cc(OC)cc(OC)c1 | > 200 | > 200 µM | –
O=c1c2cc([N+](=O)[O-])cnc2sn1-c1ccc(Br)cc1 | > 200 | 63.1 µM | –
CCOC(=O)c1cnc2n(c1=O)[C@H]1CCCC[C@@H]1N2 | > 200 | > 200 µM | –
